These results are taken from US5677419A, “Cyclic vasoactive peptide analogs” (Hoffmann-La Roche Inc., priority 1994, dated 1997).

The structures appear in SMILES notation. Where a SMILES comes first, the peptide text is derived from it. Bridges are numbered along the chain shown (N, C = ends). [ ]: non-standard residue; d: D form. Phe(4-F) = N[C@@H](Cc1ccc(F)cc1)C(=O)O; Nle = CCCC[C@H](N)C(=O)O

Test [1] concerns guinea pigs. As to the kind of experiment: In vivo bronchodilator activity by tracheal instillation against histamine challenge. The conditions noted are these: anesthetized male guinea pigs, inhibition of histamine (i.v.)-induced rise in tracheal pressure. Set-up: species or system guinea pig. In short, it runs like this:
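Urethane-anaesthetised male Hartley guinea pigs (400-600 g) received compound in water by intratracheal instillation, then were paralysed, ventilated and challenged with histamine […] i.v. Tracheal pressure change gave % inhibition (≥3 animals/group); ED50 from log dose-response; duration as time until inhibition fell to 40%.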

Test [2] concerns guinea pig tracheal smooth muscle. In words: Tracheal relaxant activity of VIP analogs on isolated guinea pig tracheal rings. It counts as cell-based. Conditions: cumulative concentration response, relaxation as % of maximum response to VIP (10^-6 M=100%), three tissues pooled, linear regression. In short, it runs like this:
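Male guinea pig tracheal rings under 1.5 g resting tension in Krebs at 37° C, 95% O2/5% CO2, isometric tension. Cumulative concentration-response curves; relaxation as % of response to 10^-6 M VIP added at end; three tissues pooled, EC50 by linear regression.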

In the case of `CCCC[C@H](NC(=O)[C@H](CCC(N)=O)NC(=O)[C@H](CCCCN)NC(=O)[C@H](CCCNC(=N)N)NC(=O)[C@H](CC(C)C)NC(=O)[C@H](CCCCN)NC(=O)[C@@H](NC(=O)[C@H](Cc1ccc(O)cc1)NC(=O)[C@H](CC(N)=O)NC(=O)[C@H](CCC(=O)O)NC(=O)[C@@H](NC(=O)[C@H](Cc1ccc(F)cc1)NC(=O)[C@@H](NC(=O)[C@H](C)NC(=O)[C@H](CC(=O)O)NC(=O)[C@H](CO)NC(=O)[C@H](Cc1c[nH]cn1)NC(C)=O)C(C)C)[C@@H](C)O)[C@@H](C)O)C(=O)N[C@@H](C)C(=O)N[C@H](C(=O)N[C@@H](CCCCN)C(=O)N[C@H]1CCCCNC(=O)C[C@@H](C(=O)N[C@H](C(=O)N[C@@H](CC(C)C)C(=O)N[C@H](C(=O)NCC(=O)NCC(=O)N[C@H](C(N)=O)[C@@H](C)O)[C@@H](C)O)C(C)C)NC(=O)[C@H](CC(N)=O)NC(=O)[C@H](CC(C)C)NC(=O)[C@H](Cc2ccc(O)cc2)NC1=O)C(C)C` [SEQ ID NO:66, Ac-[p-F-Phe^6,Glu^8,Lys^12,Nle^17,Asp^25,Val^26,Thr^28,Gly^29,30,Thr^31]-VIP cyclo (Lys^21 →Asp^25)] (Ac-HSDAV[Phe(4-F)]TENYTKLRKQ[Nle]AVKKYLNDVLTGGT-NH2; lactam 21-25), the “Bronchodilator activity of VIP analogs in guinea pigs, ED50” value (from here on “Bronchodilator activity of VIP analogs”) in test [1] stood at 0.12 μg. The compound also displayed an EC50 in test [2] of 0.57 nM.
In the same order, the values of `CCCC[C@H](NC(=O)[C@H](CCC(N)=O)NC(=O)[C@H](CCCCN)NC(=O)[C@H](CCCNC(=N)N)NC(=O)[C@H](CC(C)C)NC(=O)[C@H](CCCCN)NC(=O)[C@@H](NC(=O)[C@H](Cc1ccc(O)cc1)NC(=O)[C@H](CC(N)=O)NC(=O)[C@H](CCC(=O)O)NC(=O)[C@@H](NC(=O)[C@H](Cc1ccccc1)NC(=O)[C@@H](NC(=O)[C@H](C)NC(=O)[C@H](CC(=O)O)NC(=O)[C@H](C)NC(=O)[C@H](Cc1c[nH]cn1)NC(C)=O)C(C)C)[C@@H](C)O)[C@@H](C)O)C(=O)N[C@@H](C)C(=O)N[C@H](C(=O)N[C@@H](CCCCN)C(=O)N[C@H]1CCCCNC(=O)C[C@@H](C(=O)N[C@@H](CC(C)C)C(=O)N[C@@H](CCCCN)C(=O)N[C@@H](CCCCN)C(=O)NCC(=O)NCC(=O)N[C@H](C(N)=O)[C@@H](C)O)NC(=O)[C@H](CC(N)=O)NC(=O)[C@H](CC(C)C)NC(=O)[C@H](Cc2ccc(O)cc2)NC1=O)C(C)C` [SEQ ID NO:67, Ac-[Ala^2,Glu^8,Lys^12,Nle^17,Asp^25,Leu^26,Lys^27,28,Gly^29,30,Thr^31]-VIP cyclo (Lys^21 →Asp^25)] (Ac-HADAVFTENYTKLRKQ[Nle]AVKKYLNDLKKGGT-NH2; lactam 21-25) are 0.077 μg and 0.19 nM.
For `CCCC[C@H](NC(=O)[C@H](CCC(N)=O)NC(=O)[C@H](CCCCN)NC(=O)[C@H](CCCNC(=N)N)NC(=O)[C@H](CC(C)C)NC(=O)[C@H](CCCCN)NC(=O)[C@@H](NC(=O)[C@H](Cc1ccc(O)cc1)NC(=O)[C@H](CC(N)=O)NC(=O)[C@H](CCC(=O)O)NC(=O)[C@@H](NC(=O)[C@H](Cc1ccccc1)NC(=O)[C@@H](NC(=O)[C@H](C)NC(=O)[C@H](CC(=O)O)NC(=O)[C@H](CO)NC(=O)[C@H](Cc1c[nH]cn1)NC(C)=O)C(C)C)[C@@H](C)O)[C@@H](C)O)C(=O)N[C@@H](C)C(=O)N[C@H](C(=O)N[C@@H](CCCCN)C(=O)N[C@H]1CCCCNC(=O)C[C@@H](C(=O)N[C@@H](CC(C)C)C(=O)N[C@@H](CCCCN)C(=O)N[C@@H](CCCCN)C(=O)NCC(=O)NCC(=O)N[C@H](C(N)=O)[C@@H](C)O)NC(=O)[C@H](CC(N)=O)NC(=O)[C@H](CC(C)C)NC(=O)[C@H](Cc2ccc(O)cc2)NC1=O)C(C)C` [SEQ ID NO:68, Ac-[Glu^8,Lys^12,Nle^17,Asp^25,Leu^26,Lys^27,28,Gly^29,30,Thr^31]-VIP cyclo (Lys^21 →Asp^25)] (Ac-HSDAVFTENYTKLRKQ[Nle]AVKKYLNDLKKGGT-NH2; lactam 21-25) the same measures were 0.04 μg and 0.43 nM.
Turning to `CCCC[C@H](NC(=O)[C@H](CCC(N)=O)NC(=O)[C@H](CCCCN)NC(=O)[C@H](CCCNC(=N)N)NC(=O)[C@H](CC(C)C)NC(=O)[C@H](CCCCN)NC(=O)[C@@H](NC(=O)[C@H](Cc1ccc(O)cc1)NC(=O)[C@H](CC(N)=O)NC(=O)[C@H](CC(=O)O)NC(=O)[C@@H](NC(=O)[C@H](Cc1ccccc1)NC(=O)[C@@H](NC(=O)[C@H](C)NC(=O)[C@H](CC(=O)O)NC(=O)[C@H](CO)NC(=O)[C@H](Cc1c[nH]cn1)NC(C)=O)C(C)C)[C@@H](C)O)[C@@H](C)O)C(=O)N[C@@H](C)C(=O)N[C@@H](C)C(=O)N[C@@H](CCCCN)C(=O)N[C@H]1CCCCNC(=O)C[C@@H](C(=O)N[C@@H](CC(C)C)C(=O)N[C@@H](CCCCN)C(=O)N[C@@H](CCCCN)C(=O)N[C@@H](C)C(=O)N[C@@H](C)C(=O)N[C@@H](C)C(N)=O)NC(=O)[C@H](CC(N)=O)NC(=O)[C@H](CC(C)C)NC(=O)[C@H](Cc2ccc(O)cc2)NC1=O` [SEQ ID NO:69, Ac-[Lys^12,Nle^17,Ala^19,Asp^25,Leu^26,Lys^27,28,Ala^29-31]-VIP cyclo (Lys^21 →Asp^25)] (Ac-HSDAVFTDNYTKLRKQ[Nle]AAKKYLNDLKKAAA-NH2; lactam 21-25), in test [1], the “Bronchodilator activity of VIP analogs” value amounted to 0.04 μg. This compound showed an EC50 in test [2] of 0.42 nM.
Turning to `CC[C@H](C)[C@H](NC(=O)[C@H](CO)NC(=O)[C@H](CC(N)=O)NC(=O)[C@H](CC(C)C)NC(=O)[C@H](Cc1ccc(O)cc1)NC(=O)[C@H](CCCCN)NC(=O)[C@H](CCCCN)NC(=O)[C@@H](NC(=O)[C@H](C)NC(=O)[C@H](CCSC)NC(=O)[C@H](CCC(N)=O)NC(=O)[C@H](CCCCN)NC(=O)[C@H](CCCNC(=N)N)NC(=O)[C@H](CC(C)C)NC(=O)[C@H](CCCNC(=N)N)NC(=O)[C@@H](NC(=O)[C@H](Cc1ccc(O)cc1)NC(=O)[C@H](CC(N)=O)NC(=O)[C@H](CC(=O)O)NC(=O)[C@@H](NC(=O)[C@H](Cc1ccccc1)NC(=O)[C@@H](NC(=O)[C@H](C)NC(=O)[C@H](CC(=O)O)NC(=O)[C@H](CO)NC(=O)[C@@H](N)Cc1c[nH]cn1)C(C)C)[C@@H](C)O)[C@@H](C)O)C(C)C)C(=O)N[C@@H](CC(C)C)C(=O)N[C@@H](CC(N)=O)C(N)=O` [VIP, Vasoactive intestinal peptide, reference compound], in test [1], the “Bronchodilator activity of VIP analogs” value stood at 7.3 μg. Also, in test [2], the response was half-maximal at 10 nM (EC50).

As a reminder, the EC50 is the concentration giving half of the maximal effect.
